For 18 molecules, IC50 results are on record in patent publication US12552829B2, “Compositions and methods for treating CNS disorders” (SAGE THERAPEUTICS, INC., priority 2019, dated 2026).

Structures are written as SMILES. Where only a bound is given, the exact number is not on record here.

This experiment addresses [35S]-TBPS binding, rat brain cortical membranes (GABAA receptor). In words: Steroid inhibition of [35S]-TBPS binding. As to conditions: 3 nM [35S]-TBPS, in the presence of 5 mM GABA, 90 min at room temp. The procedure:
[^35S]-t-Butylbicyclophosphorothionate (TBPS) binding assays using rat brain cortical membranes in the presence of 5 mM GABA has been described (Gee et al, J. Pharmacol. Exp. Ther. 1987, 241, 346-353; Hawkinson et al, Mol. Pharmacol. 1994, 46, 977-985; Lewin, A. H et al., Mol. Pharmacol. 1989, 35, 189-194).
Briefly, cortices are rapidly removed following decapitation of carbon dioxide-anesthetized Sprague-Dawley rats (200-250 g). The cortices are homogenized in 10 volumes of ice-cold 0.32 M sucrose using a glass/teflon homogenizer and centrifuged at 1500×g for 10 min at 4° C. The resultant supernatants are centrifuged at 10,000×g for 20 min at 4° C. to obtain the P2 pellets. The P2 pellets are resuspended in 200 mM NaCl/50 mM Na-K phosphate pH 7.4 buffer and centrifuged at 10,000×g for 10 min at 4° C. This washing procedure is repeated twice and the pellets are resuspended in 10 volumes of buffer. Aliquots ([…]) of the membrane suspensions are incubated with 3 nM [^35S]-TBPS and […] aliquots of test drug dissolved in dimethyl sulfoxide (DMSO) (final 0.5%) in the presence of 5 mM GABA. The incubation is brought to a final volume of 1.0 mL with buffer. Nonspecific binding is determined in the presence of […] and ranged from 15 to 25%. Following a 90 min incubation at room temp, the assays are terminated by filtration through glass fiber filters (Schleicher and Schuell No. 32) using a cell harvester (Brandel) and rinsed three times with ice-cold buffer. Filter bound radioactivity is measured by liquid scintillation spectrometry. Non-linear curve fitting of the overall data for each drug averaged for each concentration is done using Prism (GraphPad). […] The concentration of test compound producing 50% inhibition (IC50) of specific binding and the maximal extent of inhibition (Imax) are determined for the individual experiments with the same model used for the overall data and then the means±SEM.s of the individual experiments are calculated.
Various compounds are or can be screened to determine their potential as modulators of [^35S]-TBPS binding in vitro. These assays are or can be performed in accordance with the above.
Take `COC[C@@]1(O)CC[C@H]2[C@H](CC[C@@H]3[C@@H]2CC[C@@]2(C)[C@H]3[C@H](C)CC[C@@H]2[C@@](C)(O)Cn2cc(C#N)cn2)C1` (single isomer, unassigned) [Example 32]: the IC50 (usually the concentration needed to halve the response being measured) is less than 0.1 µM. Take `CCC[C@@]1(O)CC[C@H]2[C@H](CC[C@@H]3[C@@H]2CC[C@@]2(C)[C@H]3[C@H](C)CC[C@@H]2[C@@](C)(O)Cn2cc(C#N)cn2)C1` (single isomer, unassigned) [Example 34]: the IC50 was less than 0.1 µM. The figure for `CCC[C@@]1(O)CC[C@H]2[C@@H](CC[C@@H]3[C@@H]2CC[C@@]2(C)[C@H]3CCC[C@@H]2[C@](C)(O)Cn2cc(C#N)cn2)C1` [Example 1, 1-((S)-2-hydroxy-2-((1S,4aS,4bR,6aS,8R,10aS,10bR,12aS)-8-hydroxy-12a-methyl-8-propyloctadecahydrochrysen-1-yl)propyl)-1H-pyrazole-4-carbonitrile] is 0.1 to 1 µM. Consider `CCC[C@@]1(O)CC[C@H]2[C@@H](CC[C@@H]3[C@@H]2CC[C@@]2(C)[C@H]3CCC[C@@H]2[C@@](C)(O)Cn2cc(C#N)cn2)C1` [Example 2, 1-((R)-2-hydroxy-2-((1S,4aS,4bR,6aS,8R,10aS,10bR,12aS)-8-hydroxy-12a-methyl-8-propyloctadecahydrochrysen-1-yl)propyl)-1H-pyrazole-4-carbonitrile], for which the IC50 lay within 0.1 to 1 µM. For `CC[C@@]1(O)CC[C@H]2[C@H](CC[C@@H]3[C@@H]2CC[C@@]2(C)[C@H]3CCC[C@@H]2[C@](C)(O)Cn2cc(C#N)cn2)C1` [Example 7, 1-((S)-2-((1S,4aS,4bR,6aR,8R,10aS,10bR,12aS)-8-ethyl-8-hydroxy-12a-methyloctadecahydrochrysen-1-yl)-2-hydroxypropyl)-1H-pyrazole-4-carbonitrile], the IC50 fell in the range of 0.1 to 1 µM. `CCC[C@@]1(O)CC[C@H]2[C@H](CC[C@@H]3[C@@H]2CC[C@@]2(C)[C@H]3CCC[C@@H]2[C@](C)(O)Cn2cc(C#N)cn2)C1` [Example 9, 1-((S)-2-hydroxy-2-((1S,4aS,4bR,6aR,8R,10aS,10bR,12aS)-8-hydroxy-12a-methyl-8-propyloctadecahydrochrysen-1-yl)propyl)-1H-pyrazole-4-carbonitrile]: the IC50 is less than 0.1 µM. With `CC[C@@]1(O)CC[C@H]2[C@@H](CC[C@@H]3[C@@H]2CC[C@@]2(C)[C@H]3CCC[C@@H]2[C@@](C)(O)Cn2cc(C#N)cn2)C1` [Example 11, 1-((R)-2-((1S,4aS,4bR,6aS,8R,10aS,10bR,12aS)-8-ethyl-8-hydroxy-12a-methyloctadecahydrochrysen-1-yl)-2-hydroxypropyl)-1H-pyrazole-4-carbonitrile], the IC50 fell in the range of 0.1 to 1 µM. On to `C[C@@]1(O)CC[C@@]2(C)[C@H](CC[C@@H]3[C@@H]2CC[C@@]2(C)[C@H]3CCC[C@@H]2[C@@](C)(O)Cn2cc(C#N)cn2)C1` [Example 15, 1-((R)-2-hydroxy-2-((1S,4aS,4bR,6aR,8R,10aS,10bS,12aS)-8-hydroxy-8,10a,12a-trimethyloctadecahydrochrysen-1-yl)propyl)-1H-pyrazole-4-carbonitrile], for which the IC50 was 0.1 to 1 µM. With `CCC[C@@]1(O)CC[C@@]2(C)[C@@H](CC[C@@H]3[C@@H]2CC[C@@]2(C)[C@H]3CCC[C@@H]2[C@@](C)(O)Cn2cc(C#N)cn2)C1` [Example 17, 1-((R)-2-hydroxy-2-((1S,4aS,4bR,6aS,8R,10aS,10bS,12aS)-8-hydroxy-10a,12a-dimethyl-8-propyloctadecahydrochrysen-1-yl)propyl)-1H-pyrazole-4-carbonitrile], the IC50 was not below 1 µM.

For the molecule `C[C@]1(O)CCC2=CC[C@H]3[C@@H]4CC[C@H]([C@](C)(O)Cn5cc(C#N)cn5)[C@@]4(C)CC[C@@H]3[C@@]2(C)CC1` [Example 18, 1-((S)-2-hydroxy-2-((1S,3aS,3bS,8S,10aR,10bS,12aS)-8-hydroxy-8,10a,12a-trimethyl-1,2,3,3a,3b,4,6,7,8,9,10,10a,10b,11,12,12a-hexadecahydrocyclohepta[a]cyclopenta[f]naphthalen-1-yl)propyl)-1H-pyrazole-4-carbonitrile], the IC50 fell in the range of 0.1 to 1 µM. For `C[C@]1(O)CCC2=CC[C@H]3[C@@H]4CC[C@H]([C@@](C)(O)Cn5cc(C#N)cn5)[C@@]4(C)CC[C@@H]3[C@@]2(C)CC1` [Example 19, 1-((R)-2-hydroxy-2-((1S,3aS,3bS,8S,10aR,10bS,12aS)-8-hydroxy-8,10a,12a-trimethyl-1,2,3,3a,3b,4,6,7,8,9,10,10a,10b,11,12,12a-hexadecahydrocyclohepta[a]cyclopenta[f]naphthalen-1-yl)propyl)-1H-pyrazole-4-carbonitrile], the IC50 is less than 0.1 µM. On to `C[C@@]1(O)CCC[C@H]2[C@H](CC[C@@H]3[C@@H]2CC[C@@]2(C)[C@H]3CC[C@@H]2[C@](C)(O)Cn2cc(C#N)cn2)C1` [Example 20, 1-((S)-2-hydroxy-2-((1S,3aS,3bR,5aR,7R,10aS,10bR,12aS)-7-hydroxy-7,12a-dimethyloctadecahydrocyclohepta[a]cyclopenta[f]naphthalen-1-yl)propyl)-1H-pyrazole-4-carbonitrile], for which the IC50 is less than 0.1 µM. Regarding `C[C@@]1(O)CCC[C@H]2[C@H](CC[C@@H]3[C@@H]2CC[C@@]2(C)[C@H]3CC[C@@H]2[C@@](C)(O)Cn2cc(C#N)cn2)C1` [Example 21, 1-((R)-2-hydroxy-2-((1S,3aS,3bR,5aR,7R,10aS,10bR,12aS)-7-hydroxy-7,12a-dimethyloctadecahydrocyclohepta[a]cyclopenta[f]naphthalen-1-yl)propyl)-1H-pyrazole-4-carbonitrile], the IC50 was 0.1 to 1 µM.

As to `C[C@]1(O)CC[C@@H]2CC[C@@H]3[C@H](CC[C@@]4(C)[C@H]3CC[C@@H]4[C@@](C)(O)Cn3cc(C#N)cn3)[C@@]2(C)CC1` [Example 23, 1-((R)-2-hydroxy-2-((1S,3aS,3bR,5aS,8S,10aS,10bS,12aS)-8-hydroxy-8,10a,12a-trimethyloctadecahydrocyclohepta[a]cyclopenta[f]naphthalen-1-yl)propyl)-1H-pyrazole-4-carbonitrile], the IC50 lay within 0.1 to 1 µM. As to `C[C@@H]1CC[C@H]([C@@](C)(O)Cn2cc(C#N)cn2)[C@@]2(C)CC[C@H]3[C@@H](CC[C@@H]4C[C@](C)(O)CC[C@@H]43)[C@H]12` [Example 24, 1-((R)-2-hydroxy-2-((1S,4R,4aS,4bR,6aR,8R,10aS,10bR,12aS)-8-hydroxy-4,8,12a-trimethyloctadecahydrochrysen-1-yl)propyl)-1H-pyrazole-4-carbonitrile], the IC50 is less than 0.1 µM. For `C[C@@H]1CC[C@H]([C@](C)(O)Cn2cc(C#N)cn2)[C@@]2(C)CC[C@H]3[C@@H](CC[C@@H]4C[C@](C)(O)CC[C@@H]43)[C@H]12` [Example 25, 1-((S)-2-hydroxy-2-((1S,4R,4aS,4bR,6aR,8R,10aS,10bR,12aS)-8-hydroxy-4,8,12a-trimethyloctadecahydrochrysen-1-yl)propyl)-1H-pyrazole-4-carbonitrile], the IC50 was less than 0.1 µM. In the case of `C[C@H]1[C@H]2[C@@H]3CC[C@@H]4C[C@](C)(O)CC[C@@H]4[C@H]3CC[C@]2(C)[C@@H]([C@](C)(O)Cn2cc(C#N)cn2)C[C@@H]1C` [Example 26, 1-((S)-2-hydroxy-2-((1S,3S,4R,4aS,4bR,6aR,8R,10aS,10bR,12aS)-8-hydroxy-3,4,8,12a-tetramethyloctadecahydrochrysen-1-yl)propyl)-1H-pyrazole-4-carbonitrile], the IC50 is less than 0.1 µM. `C[C@H]1[C@H]2[C@@H]3CC[C@@H]4C[C@](C)(O)CC[C@@H]4[C@H]3CC[C@]2(C)[C@@H]([C@@](C)(O)Cn2cc(C#N)cn2)C[C@@H]1C` [Example 27, 1-((R)-2-hydroxy-2-((1S,3S,4R,4aS,4bR,6aR,8R,10aS,10bR,12aS)-8-hydroxy-3,4,8,12a-tetramethyloctadecahydrochrysen-1-yl)propyl)-1H-pyrazole-4-carbonitrile]: the IC50 is less than 0.1 µM.
